pIC50: −log10 of the molar value.
Target: human MRGPRD (Homo sapiens, UniProt Q8TDS7)
Assay: MRGPRD antagonist activity, IP-One HTRF assay in CHO cells stably expressing human MRGPRD (versus 100 μM β-Alanine agonist)
Type: cell-based
Description: Chinese Hamster Ovary (CHO) cells stably expressing human MRGPRD (Eurofins, San Diego CA) were plated in a 384-well plate at 20,000 cells per well in 12 μL of Optimem (Fisher Scientific 11-058-021). Plates were kept in the incubator at 37° C. overnight. Antagonists were solubilized at a concentration of 10 mM in DMSO, and the agonists were solubilized to stock concentrations of either 50 mM in H2O (β-Alanine) or 10 mM in DMSO (all others) and then diluted in assay buffer (final concentrations of 5.7 mM Tris-HCl, 43 mM NaCl, 50 mM LiCl, pH=8). The concentration of DMSO was normalized across the plate. Antagonists were added to the plate using a Tecan D300 Digital Dispenser at nanoliter/picoliter volumes and 2 μL of agonists in assay buffer were added to each well for a final assay volume of 14 μL. Plates were covered and incubated for 1 h at 37° C. and then for 1 h at room temperature. IP-1 standards and HTRF detection reagents were added according to an IP-One—Gq Kit purchased from Cisbio (part number 621PAPEJ) and incubated in the dark for 1 h at room temperature. Assay plates were read on either a Molecular Devices SpectraMax iD5 plate reader or a BMG ClarioStar plate reader. The HTRF ratio was calculated form the raw data and graphed using GraphPad Prism to calculate IC50 values. Data are expressed as average IC50 values and average percent antagonism calculated as a percent of the maximum efficacy response. For these studies, the variability of the data was assessed by determining the standard error of mean (SEM).
The activity ranges are denoted as follows: “+++++” denotes antagonist activity<100 nM; “++++” denotes antagonist activity between 100 and 500 nM; “+++” denotes activity between 500 and 1000 nM; “++” denotes activity between 1000 and 3000 nM; and “+” denotes activity>3000 nM.

Chain of human MRGPRD (Q8TDS7 whole entry): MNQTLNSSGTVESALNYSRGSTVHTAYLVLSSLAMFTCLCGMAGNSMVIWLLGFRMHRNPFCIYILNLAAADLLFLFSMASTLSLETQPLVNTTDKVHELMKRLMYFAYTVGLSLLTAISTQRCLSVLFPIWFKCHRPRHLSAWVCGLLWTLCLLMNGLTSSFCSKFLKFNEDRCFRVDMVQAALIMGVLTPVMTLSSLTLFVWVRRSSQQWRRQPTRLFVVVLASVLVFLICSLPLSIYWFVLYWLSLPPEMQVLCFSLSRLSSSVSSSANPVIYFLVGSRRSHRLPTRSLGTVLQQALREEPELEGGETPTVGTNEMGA

Structure (SMILES) | pIC50
COc1cc(-c2c(C)nn(C)c2C)ccc1-n1nnc(C(=O)Nc2ccncc2)c1C1CC1 [Compound 7-226] | 6.30 to 7.00
CC(C)n1cc(CNC(=O)c2nnn(-c3ccc(-c4ccccc4)cc3)c2C2CC2)cn1 [Compound 14-32] | 5.52 to 6.00
CCc1ccc(C2(NC(=O)c3nnn(-c4ccc(-c5ccc(C#N)cc5)cc4)c3C3CC3)CC2)cn1 [Compound 18-2] | 6.30 to 7.00
CC(=O)c1ccc(-c2ccc(-n3nnc(C(=O)Nc4ccncc4)c3C3CC3)cc2)cc1C [Compound 7-174] | 5.52 to 6.00
CCn1cc(CNC(=O)c2nnn(-c3ccc(-c4ccc(C#N)cc4)cc3)c2C(C)C)cn1 [Compound 17-17] | 6.30 to 7.00
CCn1cc(C(C)NC(=O)c2nnn(-c3ccc(-c4ccccc4)cc3)c2C2CC2)cn1 (stereo not drawn) [Compound 14-27] | 6.00 to 6.30
Cc1cccc(-n2nnc(C(=O)Nc3ccncc3)c2C2CC2)c1 [Compound 2-14] | < 5.52
N#Cc1ccc(-c2ccc(-n3nnc(C(=O)Nc4ccncc4)c3C3CC3)cc2)cc1 [Compound 7-39] | 6.30 to 7.00
Cc1c(-c2ccc(-n3nnc(C(=O)Nc4ccncc4)c3C3CC3)cc2)c(CO)nn1C [Compound 7-100] | 6.30 to 7.00
CCc1cc(NC(=O)c2nnn(-c3ccc(-c4ccccc4)cc3)c2C2CC2)ccn1 [Compound 14-15, 1-([1,1′-biphenyl]-4-yl)-5-cyclopropyl-N-(2-ethylpyridin-4-yl)-1H-1,2,3-triazole-4-carboxamide] | 6.30 to 7.00
Cc1c(-c2cccc(-n3nnc(C(=O)Nc4ccncc4)c3C3CC3)c2)cnn1C [Compound 7-305] | 5.52 to 6.00
Cc1nn(C(=O)c2nnn(-c3ccc(-c4ccccc4)cc3)c2C2CC2)c2cccc(N)c12 [Compound 14-4] | < 5.52
Cn1cc(CNC(=O)c2nnn(-c3ccc(-c4ccccc4)cc3)c2C2CC2)cn1 [Compound 14-34] | 5.52 to 6.00
Cn1ncc(NC(=O)c2nnn(-c3ccc(-c4ccccc4)cc3)c2C2CC2)c1Cl [Compound 14-10] | < 5.52
O=C(Nc1ccncc1)c1nnn(-c2ccc(-c3ncc[nH]3)cc2)c1C1CC1 [Compound 7-3] | < 5.52
Cc1cc(NC(=O)c2nnn(-c3ccc(-c4ccc(CC#N)nc4)cc3)c2C2CC2)ccn1 [Compound 15-24] | 6.30 to 7.00
N#Cc1ccc(-n2nnc(C(=O)Nc3ccncc3)c2C2CC2)cc1 [Compound 2-1] | < 5.52
O=C(Nc1ccncc1)c1nnn(-c2ccc(-c3cnn(C4CCCC4)c3)cc2)c1C1CC1 [Compound 7-63] | 6.30 to 7.00
CCn1nc(C)cc1NC(=O)c1nnn(-c2ccc(-c3ccccc3)cc2)c1C1CC1 [Compound 14-12] | < 5.52
CC(NC(=O)c1nnn(-c2ccc(-c3ccccc3)cc2)c1C1CC1)c1cnn(C)c1 (stereo not drawn) [Compound 14-75] | < 5.52
Cn1ncc(-c2ccc(-n3nnc(C(=O)Nc4ccncc4)c3C3CC3)cc2)c1-c1ccccc1 [Compound 7-144] | 6.00 to 6.30
O=C(NCCc1cccs1)c1nnn(-c2ccc(-c3ccccc3)cc2)c1C1CC1 [Compound 14-67] | 5.52 to 6.00

Structure (SMILES) | pIC50
Cc1ccc(-n2nnc(C(=O)Nc3ccncc3)c2C2CC2)cc1C [Compound 2-5] | 5.52 to 6.00
CC(C)c1cccc(-c2ccc(-n3nnc(C(=O)Nc4ccncc4)c3C3CC3)cc2)c1 [Compound 7-37] | 6.30 to 7.00
Cc1nn(C)c(C)c1-c1ccc(-n2nnc(C(=O)NCc3ccc(C(C)C)nc3)c2C2CC2)cc1 [Compound 9-9] | 6.30 to 7.00
N#Cc1ccc(-c2ccc(-n3nnc(C(=O)Nc4cc(F)nc(F)c4)c3C3CC3)cc2)cc1F [Compound 9-37] | 6.00 to 6.30
Cc1ccc(CNC(=O)c2nnn(-c3ccc(-c4c(C)nn(C)c4C)cn3)c2C2CC2)cn1 [Compound 19-1] | 6.00 to 6.30
CC(=O)c1ccc(-c2cccc(-n3nnc(C(=O)Nc4ccncc4)c3C3CC3)c2)cc1 [Compound 7-274] | 6.00 to 6.30
O=C(Nc1ccncc1)c1nnn(-c2ccc(-c3ccc(C4CCC4)cc3)cc2)c1C1CC1 [Compound 7-127] | 6.00 to 6.30
Cc1cc(NC(=O)c2nnn(-c3ccc(-c4c(C)nn(C)c4F)cc3)c2C2CC2)ccn1 [Compound 7-13] | > 7.00
Cn1nc(-c2ccc(-n3nnc(C(=O)Nc4ccncc4)c3C3CC3)cc2)c2ccccc21 [Compound 7-164] | 5.52 to 6.00
NS(=O)(=O)c1cccc(-c2ccc(-n3nnc(C(=O)Nc4ccncc4)c3C3CC3)cc2)c1 [Compound 7-135] | 6.00 to 6.30
CCn1cc(NC(=O)c2nnn(-c3ccc(-c4ccccc4)cc3)c2C2CC2)c(C#N)n1 [Compound 14-78] | < 5.52
O=C(Nc1ccncc1)c1nnn(-c2cccc(-c3cnn(-c4ccccc4)c3)c2)c1C1CC1 [Compound 7-256] | 6.00 to 6.30
Cc1ccc(C2(NC(=O)c3nnn(-c4ccc(-c5c(C)nn(-c6ccccc6)c5C)cc4)c3C3CC3)CC2)cn1 [Compound 9-6] | > 7.00
CCc1ccc(C2(NC(=O)c3nnn(-c4ccc(-c5ccc(C#N)c(F)c5)cc4)c3C3CC3)CC2)cn1 [Compound 9-13] | 6.30 to 7.00
COc1cncc(C2(NC(=O)c3nnn(-c4ccc(-c5ccc(C#N)cc5)cc4)c3C3CC3)CC2)c1 [Compound 18-6] | 5.52 to 6.00
Cc1ncccc1CNC(=O)c1nnn(-c2ccc(-c3cccc(CC#N)c3)cc2)c1C1CC1 [Compound 16-3] | 6.30 to 7.00
CCn1cc(CNC(=O)c2nnn(-c3ccc(-c4ccc(C#N)cc4)cc3)c2C2CCC2)cn1 [Compound 17-26] | 6.00 to 6.30
Cc1nn(-c2ccccc2)c(C)c1-c1ccc(-n2nnc(C(=O)NCc3cccnc3)c2C2CC2)cc1 [Compound 9-14] | 6.30 to 7.00
COc1ccc(-c2ccc(-n3nnc(C(=O)Nc4ccncc4)c3C3CC3)cc2)c(F)c1 [Compound 7-35] | 6.30 to 7.00
COc1cc(-c2ccc(C#N)cc2)ccc1-n1nnc(C(=O)Nc2ccnc(C)c2)c1C(C)C [Compound 17-12] | 6.30 to 7.00
CC(C)C(=O)c1cccc(-c2ccc(-n3nnc(C(=O)Nc4ccncc4)c3C3CC3)cc2)c1 [Compound 7-67] | 6.30 to 7.00
Cc1nn(C)c2ncnc(NC(=O)c3nnn(-c4ccc(-c5ccccc5)cc4)c3C3CC3)c12 [Compound 14-14] | < 5.52

Structure (SMILES) | pIC50
Cc1ccc(CNC(=O)c2nnn(-c3cccc(-c4ccn(C5CCC5)n4)c3)c2C2CC2)cn1 [Compound 7-278] | 6.00 to 6.30
CCn1cc(C2(NC(=O)c3nnn(-c4ccc(-c5ccccc5)cc4)c3C3CC3)CC2)cn1 [Compound 18-12] | 5.52 to 6.00
CC(C)c1c(C(=O)NC2(c3cccnc3)CC2)nnn1-c1ccc(-c2ccc(C#N)nc2)cc1 [Compound 18-29] | < 5.52
Cc1nn2cccnc2c1-c1ccc(-n2nnc(C(=O)Nc3ccncc3)c2C2CC2)cc1 [Compound 7-31] | 6.30 to 7.00
Cc1cc(NC(=O)c2nnn(-c3ccc(-c4c(C)nn(CC(F)(F)F)c4C)cc3F)c2C2CC2)ccn1 [Compound 7-222] | > 7.00
CN(C)c1cccc(-c2ccc(-n3nnc(C(=O)Nc4ccncc4)c3C3CC3)cc2)c1 [Compound 7-36] | 6.30 to 7.00
Cc1nn(C)c(C)c1-c1ccc(-n2nnc(C(=O)Nc3cccc(C#N)c3)c2C(C)C)cc1 [Compound 17-18] | 6.30 to 7.00
CCc1ccc(C2(NC(=O)c3nnn(-c4ccc(-c5c(C)nn6cccnc56)cc4)c3C3CC3)CC2)cn1 [Compound 10-8] | 5.52 to 6.00
O=C(Nc1ccncc1)c1nnn(-c2ccc(-c3ccn(-c4ccccc4)n3)cc2)c1C1CC1 [Compound 7-103] | 6.30 to 7.00
CN(Cc1ccc(N2CCOCC2)cc1)C(=O)c1nnn(-c2ccc(-c3ccccc3)cc2)c1C1CC1 [Compound 14-76] | < 5.52
O=C(Nc1ccncc1)c1nnn(-c2ccc(-c3ccncc3)cc2)c1C1CC1 [Compound 7-178] | 5.52 to 6.00
CC(C)n1cc(-c2ccc(-n3nnc(C(=O)Nc4ccncc4)c3C3CC3)cc2)cn1 [Compound 7-175] | 5.52 to 6.00
CCO/C=C/c1cc(-n2nnc(C(=O)Nc3ccncc3)c2C2CC2)ccc1-c1c(C)nn(C)c1C [Compound 25-2] | 5.52 to 6.00
O=C(Nc1ccncc1)c1nnn(-c2cccc(-c3cnn(C4CCCC4)c3)c2)c1C1CC1 [Compound 7-266] | 6.00 to 6.30
N#Cc1ccc(-c2ccc(-n3nnc(C(=O)NC4(c5cncc(Cl)c5)CC4)c3C3CC3)cc2)cc1 [Compound 18-1] | 6.30 to 7.00
O=C(Nc1ccncc1)c1nnn(-c2ccc(-c3cnn(C(F)F)c3)cc2)c1C1CC1 [Compound 7-137] | 6.00 to 6.30
CC(=O)c1cccc(-c2cccc(-n3nnc(C(=O)Nc4ccncc4)c3C3CC3)c2)c1 [Compound 7-237] | 6.30 to 7.00
CC(C)n1cc(NC(=O)c2nnn(-c3ccc(-c4ccccc4)cc3)c2C2CC2)cn1 [Compound 14-73] | < 5.52
CC(=O)c1cccc(-c2ccc(-n3nnc(C(=O)Nc4ccncc4)c3C3CC3)cc2)c1F [Compound 7-85] | 6.30 to 7.00
Cc1cc(-c2ccc(-n3nnc(C(=O)Nc4ccncc4)c3C3CC3)cc2)n[nH]1 [Compound 7-206] | 5.52 to 6.00
Cc1cc(NC(=O)c2nnn(-c3ccc(-c4ccc(C#N)cc4)cc3F)c2C(C)C)ccn1 [Compound 17-14] | 6.30 to 7.00
CCCn1cc(-c2ccc(-n3nnc(C(=O)Nc4ccncc4)c3C3CC3)cc2)cn1 [Compound 7-86] | 6.30 to 7.00
